Consider eight molecules from ChEMBL document CHEMBL4177545, “Potential Antiosteoporotic Natural Product Lead Compounds That Inhibit 17β-Hydroxysteroid Dehydrogenase Type 2” (J Nat Prod, 2017).

Experiment [1] addresses T1, 17-beta-hydroxysteroid dehydrogenase type 1 (Homo sapiens, UniProt P14061).
T1 sequence (P14061 whole entry): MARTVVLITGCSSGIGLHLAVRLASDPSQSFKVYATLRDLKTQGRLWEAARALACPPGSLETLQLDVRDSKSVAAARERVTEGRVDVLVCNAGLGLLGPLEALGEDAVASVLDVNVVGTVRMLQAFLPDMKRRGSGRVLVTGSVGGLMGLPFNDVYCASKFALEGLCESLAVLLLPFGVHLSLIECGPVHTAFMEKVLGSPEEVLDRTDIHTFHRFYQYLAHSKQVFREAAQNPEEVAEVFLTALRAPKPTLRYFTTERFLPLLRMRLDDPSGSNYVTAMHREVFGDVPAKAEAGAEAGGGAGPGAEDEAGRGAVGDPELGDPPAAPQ
The experiment is described as follows: Inhibition of human 17beta-HSD1 expressed in HEK293 cell lysates incubated for 10 mins using [2,4,6,7-3H]-estrone and NADPH by scintillation counting method.

Experiment [2] concerns the target Estrogen receptor beta (Homo sapiens, UniProt Q92731). As to the kind of experiment: Displacement of estradiol from human ERbetaa expressed in yeast cells. The class given is cell-based.
Experiment [3] concerns the target T2, Aromatase (Homo sapiens, UniProt P11511).
T2 sequence (P11511 whole entry): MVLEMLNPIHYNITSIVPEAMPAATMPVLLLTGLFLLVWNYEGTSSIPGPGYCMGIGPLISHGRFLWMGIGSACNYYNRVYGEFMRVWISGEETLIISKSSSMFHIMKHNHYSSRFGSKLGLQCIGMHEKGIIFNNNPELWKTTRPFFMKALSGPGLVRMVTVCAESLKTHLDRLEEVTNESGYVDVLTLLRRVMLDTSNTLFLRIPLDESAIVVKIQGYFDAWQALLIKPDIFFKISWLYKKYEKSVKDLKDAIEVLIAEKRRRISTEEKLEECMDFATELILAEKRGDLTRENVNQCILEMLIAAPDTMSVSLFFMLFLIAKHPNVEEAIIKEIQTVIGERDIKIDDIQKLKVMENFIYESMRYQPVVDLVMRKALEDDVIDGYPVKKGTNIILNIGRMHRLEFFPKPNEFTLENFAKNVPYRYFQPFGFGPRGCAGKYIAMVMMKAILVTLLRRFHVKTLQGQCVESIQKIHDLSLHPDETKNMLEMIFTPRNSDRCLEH
As to the kind of experiment: Inhibition of aromatase (unknown origin).

Experiment [4] concerns the target T3, Estrogen receptor (Homo sapiens, UniProt P03372).
T3 sequence (P03372 whole entry): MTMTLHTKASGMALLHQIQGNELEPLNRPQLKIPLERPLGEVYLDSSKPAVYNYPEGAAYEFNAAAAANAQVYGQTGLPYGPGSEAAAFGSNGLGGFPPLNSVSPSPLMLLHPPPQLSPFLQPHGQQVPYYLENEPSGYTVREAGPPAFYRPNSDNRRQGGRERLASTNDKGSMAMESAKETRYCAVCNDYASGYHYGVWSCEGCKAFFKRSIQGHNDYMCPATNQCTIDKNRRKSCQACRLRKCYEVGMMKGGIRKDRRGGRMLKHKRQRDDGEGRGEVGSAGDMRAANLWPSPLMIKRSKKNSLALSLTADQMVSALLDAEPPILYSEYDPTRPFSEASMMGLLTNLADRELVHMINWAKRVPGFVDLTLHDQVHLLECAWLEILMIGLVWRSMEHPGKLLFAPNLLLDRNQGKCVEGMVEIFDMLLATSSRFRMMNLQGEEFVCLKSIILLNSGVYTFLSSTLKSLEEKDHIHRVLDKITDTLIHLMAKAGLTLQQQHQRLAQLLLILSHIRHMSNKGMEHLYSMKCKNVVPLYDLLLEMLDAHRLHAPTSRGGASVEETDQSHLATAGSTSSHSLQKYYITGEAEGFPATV
As to the kind of experiment: Displacement of estradiol from human ERalpha expressed in yeast cells. The class given is cell-based.

The species entered for experiment [5] is Homo sapiens. The experiment is described as follows: Selectivity index, ratio of inhibition of human 17beta-HSD1 expressed in HEK293 cell lysates to inhibition of human 17beta-HSD2 expressed in HEK293 cell lysates.

Sequence of Estrogen receptor beta (Q92731 whole entry): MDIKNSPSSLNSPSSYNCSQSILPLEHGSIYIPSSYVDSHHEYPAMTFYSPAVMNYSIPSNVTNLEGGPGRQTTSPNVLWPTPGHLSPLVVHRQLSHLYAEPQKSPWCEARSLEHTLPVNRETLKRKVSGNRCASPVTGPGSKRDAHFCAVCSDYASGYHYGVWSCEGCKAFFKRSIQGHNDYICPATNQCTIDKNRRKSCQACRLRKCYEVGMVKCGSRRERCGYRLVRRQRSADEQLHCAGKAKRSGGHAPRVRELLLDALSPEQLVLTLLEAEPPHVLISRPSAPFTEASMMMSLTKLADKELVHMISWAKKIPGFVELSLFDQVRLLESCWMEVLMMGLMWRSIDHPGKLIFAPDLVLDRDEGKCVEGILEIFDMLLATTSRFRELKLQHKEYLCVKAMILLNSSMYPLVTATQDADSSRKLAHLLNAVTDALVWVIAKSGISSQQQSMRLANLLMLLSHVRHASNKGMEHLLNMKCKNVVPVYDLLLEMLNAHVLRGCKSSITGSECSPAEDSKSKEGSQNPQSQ

`O=C(Cc1ccc(O)c(Cl)c1)NCCc1c[nH]c2ccccc12`: in experiment [1], the IC50 entry is “Not Active”. On the same count and under the same terms, then `O=C(Cc1ccc(O)c(Cl)c1)NCCc1ccccc1`, with “Not Active”; and `O=C(/C=C/c1ccc(O)c(O)c1)O[C@H](Cc1ccc(O)c(O)c1)C(=O)O` [ROSMARINIC ACID], with “Not Active”. As to `O=C(/C=C/c1ccc(O)cc1)c1ccc(O)cc1O` [ISOLIQUIRITIGENIN], the IC50 in experiment [2] was found to be 269 nM; in experiment [3] it was 3.8 µM; in experiment [4], 1870 nM. For `CCOC(=O)c1ccc(O)c(OC)c1`, in experiment [1], the IC50 result is “Not Active”. In the case of `O=C(Cc1ccc(O)c(Cl)c1)NCc1ccccc1`, the IC50 entry in experiment [1] is reported as “Not Active”. `COc1cc(/C=C/C(=O)CC(=O)/C=C/c2ccc(O)c(OC)c2)ccc1O`: in experiment [5], the Selectivity Index turned out to be 12.

`O=C(Cc1ccc(O)c(Cl)c1)NCc1ccccc1Cl`: the Selectivity Index in experiment [5] was 25.

What is called IC50 is the concentration needed to halve the response being measured. A higher IC50 goes with weaker potency.
